The source of these data is US8697841B2, “Peptide for transmigration across blood brain barrier and delivery systems comprising the same” (Industrial Technology Research Institute, priority 2009, dated 2014).

The nature of this test: Hot plate test (PD study). Format: in vivo, mice. The settings on record: 7.5 mg/kg EM-1, intravenous injection. On the procedure: Hot-plate test was used to evaluate thermal pain reflexes due to footpad contact with a heated surface. The response of the animals to the hot plate reflects a nociceptive behavior, which involves complex circuit integration in the central nervous system.
Briefly, the mice were individually placed on a […] hot plate apparatus and the time until onset of licking the hindlimb was measured. Basal latency was approximate 2 sec, and cut-off time in the absence of a response (T2) was set at 45 sec. The inhibition of the hindlimb-licking responses were expressed as percent maximal possible effect (% MPE) which was calculated as [(T1−T0)/(T2−T0)]×100, where T0 and T1 were the hot-plate latencies before and after intravenous injection of the EM-1 formulations. The hot-plate latency was determined 10, 20, 30, 60, 120, 180 and 210 min after the formulation injection (7.5 mg/kg EM-1), and the AUC (the area under a curve) values for MPE % versus time (min) plots were calculated.

As for endomorphin-1 [EM-1], the “analgesic effect (nociceptive responses) in hot-plate test” value was “did not reduce the nociceptive responses”.
